A word on the IC50: it is the midpoint of a concentration-inhibition curve. High values mean weaker potency, low ones greater potency.

The target in this assay is T1, human type 1 glycine transporter (GlyT1) (Homo sapiens, UniProt P48067).
T1 construct: T98G cells (glioma cells) expressing human type 1 glycine transporter (GlyT1) were used
T1 sequence (P48067 1-706): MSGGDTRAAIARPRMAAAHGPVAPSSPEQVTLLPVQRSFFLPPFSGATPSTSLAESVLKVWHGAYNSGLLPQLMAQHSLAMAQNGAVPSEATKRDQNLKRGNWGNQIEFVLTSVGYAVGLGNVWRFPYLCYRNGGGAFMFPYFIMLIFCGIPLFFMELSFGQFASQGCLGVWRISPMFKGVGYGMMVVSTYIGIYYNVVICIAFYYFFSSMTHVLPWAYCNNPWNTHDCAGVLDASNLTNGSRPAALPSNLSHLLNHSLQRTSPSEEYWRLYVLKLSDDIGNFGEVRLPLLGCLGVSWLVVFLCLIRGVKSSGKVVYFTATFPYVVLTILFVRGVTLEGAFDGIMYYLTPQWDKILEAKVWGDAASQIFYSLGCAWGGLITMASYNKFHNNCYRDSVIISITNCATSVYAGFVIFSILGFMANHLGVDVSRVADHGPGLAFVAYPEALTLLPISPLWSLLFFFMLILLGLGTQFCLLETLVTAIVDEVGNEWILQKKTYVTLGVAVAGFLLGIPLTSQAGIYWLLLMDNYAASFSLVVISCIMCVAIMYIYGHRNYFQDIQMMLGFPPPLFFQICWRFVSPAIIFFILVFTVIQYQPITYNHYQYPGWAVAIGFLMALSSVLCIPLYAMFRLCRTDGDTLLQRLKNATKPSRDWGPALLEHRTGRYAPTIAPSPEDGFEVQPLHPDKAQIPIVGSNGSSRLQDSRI
Description: Glycine uptake inhibition experiment ([3H]glycine uptake). Type of assay: cell-based. The conditions noted are these: GlyT1. In a few lines: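 T98G glioma cells expressing human GlyT1 were pretreated 10 min with compound in HEPES buffer pH 7.4 (0.2% BSA), then incubated with compound plus 250 nM final [3H]glycine for 15 min at room temperature. Intracellular radioactivity was counted after NaOH lysis; 10 μM ALX5407 defined non-specific uptake. IC50 came from 10^−9–10^−5 M curves.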

The compound `O=C(NC(c1cccc(F)c1)C1(O)CCC(F)CC1)c1nccc(C(F)(F)F)c1Cl` (single isomer, unassigned) [Compound 236, 3-chloro-N-[(cis-4-fluoro-1-hydroxycyclohexyl)(3-fluorophenyl)methyl]-4-(trifluoromethyl)pyridine-2-carboxamide] showed an IC50 of 0.1 µM.

In turn, `O=C(NC(c1ccccc1F)C1(O)CCC(F)(F)CC1)c1nccc(C(F)(F)F)c1Cl` (single isomer, unassigned) [Compound 237] displayed an IC50 of 0.25 µM. The figure for `O=C(NC(c1ccccc1)[C@]1(O)CC[C@@H](F)CC1)c1nccc(C(F)(F)F)c1Cl` (single isomer, unassigned) [Compound 238, 3-chloro-N-[(cis-4-fluoro-1-hydroxycyclohexyl)(phenyl)methyl]-4-(trifluoromethyl)pyridine-2-carboxamide] is 0.22 µM.

For `O=C(NC(c1ccccc1F)[C@]1(O)CC[C@@H](F)CC1)c1nccc(C(F)(F)F)c1Cl` (single isomer, unassigned) [Compound 239, 3-chloro-N-[(cis-4-fluoro-1-hydroxycyclohexyl)(2-fluorophenyl)methyl]-4-(trifluoromethyl)pyridine-2-carboxamide], the IC50 is 0.39 µM. In the case of `O=C(NC(c1ccccc1F)[C@]1(O)CC[C@H](F)CC1)c1nccc(C(F)(F)F)c1Cl` (single isomer, unassigned) [Compound 240, 3-chloro-N-[(trans-4-fluoro-1-hydroxycyclohexyl)(2-fluorophenyl)methyl]-4-(trifluoromethyl)pyridine-2-carboxamide], the midpoint of inhibition, the IC50, lay at 0.23 µM. The figure for `O=C(NC(c1cccc(F)c1Cl)[C@]1(O)CC[C@@H](F)CC1)c1nccc(C(F)F)c1Cl` (single isomer, unassigned) [Compound 241, 3-chloro-N-[(2-chloro-3-fluorophenyl)(cis-4-fluoro-1-hydroxycyclohexyl)methyl]-4-(difluoromethyl)pyridine-2-carboxamide] is 0.11 µM; for `O=C(NC(c1cncc(Cl)c1)[C@]1(O)CC[C@@H](F)CC1)c1nccc(C(F)(F)F)c1Cl` (single isomer, unassigned) [Compound 242, 3-chloro-N-[(5-chloropyridin-3-yl)(cis-4-fluoro-1-hydroxycyclohexyl)methyl]-4-(trifluoromethyl)pyridine-2-carboxamide] it is 0.24 µM; for `O=C(NC(c1cncc(Cl)c1)[C@]1(O)CC[C@@H](F)CC1)c1nccc(C(F)(F)F)c1Cl` (single isomer, unassigned) [Compound 243, 3-chloro-N-[(5-chloropyridin-3-yl)(cis-4-fluoro-1-hydroxycyclohexyl)methyl]-4-(trifluoromethyl)pyridine-2-carboxamide] it is 1.5 µM. With `O=C(NC(c1ccccn1)[C@]1(O)CC[C@@H](F)CC1)c1nccc(C(F)(F)F)c1Cl` (single isomer, unassigned) [Compound 244, 3-chloro-N-[(cis-4-fluoro-1-hydroxycyclohexyl)(pyridin-2-yl)methyl]-4-(trifluoromethyl)pyridine-2-carboxamide] the figure was 1 µM. As for `O=C(NC(c1cccc(F)c1Cl)[C@]1(O)CC[C@@H](F)CC1)c1cccc(C(F)(F)F)c1F` (single isomer, unassigned) [Compound 245, N-[(2-chloro-3-flurophenyl)(cis-4-fluoro-1-hydroxycyclohexyl)methyl]-2-fluoro-3-(trifluoromethyl)benzamide], the IC50 turned out to be 0.99 µM. With `O=C(NC(c1cccc(F)c1Cl)[C@]1(O)CC[C@@H](F)CC1)c1cccc(C(F)(F)F)c1Cl` (single isomer, unassigned) [Compound 246, 2-chloro-N-[(2-chloro-3-fluorophenyl)(cis-4-fluoro-1-hydroxycyclohexyl)methyl]-3-(trifluoromethyl)benzamide] the figure was 0.1 µM. The figure for `O=C(NC(c1cccc(F)c1Cl)[C@]1(O)CC[C@@H](F)CC1)c1ccccc1Cl` (single isomer, unassigned) [Compound 247, 2-chloro-N-[(2-chloro-3-fluorophenyl)(cis-4-fluoro-1-hydroxycyclohexyl)methyl]benzamide] is 1 µM.

In the case of `O=C(NC(c1cccc(F)c1Cl)[C@]1(O)CC[C@@H](F)CC1)c1cccc(Cl)c1Cl` (single isomer, unassigned) [Compound 248, 2,3-dichloro-N-[(2-chloro-3-fluorophenyl)(cis-4-fluoro-1-hydroxycyclohexyl)methyl]benzamide], the IC50 was 0.9 µM.

Compound `O=C(NC(c1cccc(F)c1Cl)[C@]1(O)CC[C@@H](F)CC1)c1ncccc1Cl` (single isomer, unassigned) [Compound 249, 3-chloro-N-[(2-chloro-3-fluorophenyl)(cis-4-fluoro-1-hydroxycyclohexyl)methyl]pyridine-2-carboxamide] displayed an IC50 of 1.2 µM. In the case of `O=C(NC(c1cccc(F)c1Cl)[C@]1(O)CC[C@@H](F)CC1)c1cnccc1Cl` (single isomer, unassigned) [Compound 250, 4-chloro-N-[(2-chloro-3-fluorophenyl)(cis-4-fluoro-1-hydroxycyclohexyl)methyl]pyridine-3-carboxamide], the IC50 worked out at 1.9 µM. Take `O=C(NC(c1cccc(F)c1Cl)[C@]1(O)CC[C@@H](F)CC1)c1cc(Cl)ccc1Cl` (single isomer, unassigned) [Compound 251, 2,5-dichloro-N-[(2-chloro-3-fluorophenyl)(cis-4-fluoro-1-hydroxycyclohexyl)methyl]benzamide]: the midpoint of inhibition, the IC50, lay at 0.43 µM.

Turning to `O=C(NC(c1cccc(F)c1Cl)[C@]1(O)CC[C@@H](F)CC1)c1cc(Cl)cc(Cl)c1` (single isomer, unassigned) [Compound 253, 3,5-dichloro-N-[(2-chloro-3-fluorophenyl)(cis-4-fluoro-1-hydroxycyclohexyl)methyl]benzamide], inhibition was half-maximal at 8.3 µM (IC50). With `O=C(NC(c1cccc(F)c1Cl)[C@]1(O)CC[C@@H](F)CC1)c1c(Cl)cccc1Cl` (single isomer, unassigned) [Compound 254, 2,6-dichloro-N-[(2-chloro-3-fluorophenyl)(cis-4-fluoro-1-hydroxycyclohexyl)methyl]benzamide] the figure was 1 µM; with `O=C(NC(c1cccc(F)c1Cl)[C@]1(O)CC[C@@H](F)CC1)c1nccc2ccccc12` (single isomer, unassigned) [Compound 255, N-[(2-chloro-3-fluorophenyl)(cis-4-fluoro-1-hydroxycyclohexyl)methyl]isoquinoline-1-carboxamidea], 0.12 µM. With `O=C(NC(c1cccc(F)c1Cl)[C@]1(O)CC[C@@H](F)CC1)c1nccc2ncccc12` (single isomer, unassigned) [Compound 256, N-[(2-chloro-3-fluorophenyl)(cis-4-fluoro-1-hydroxycyclohexyl)methyl]-1,6-naphthyridin-5-carboxamide] the figure was 2.1 µM. The figure for `O=C(NC(c1ccnc(Cl)c1)[C@]1(O)CC[C@@H](F)CC1)c1nccc(C(F)(F)F)c1Cl` (single isomer, unassigned) [Compound 257] is 0.44 µM; for `O=C(NC(c1ccnc(Cl)c1)[C@]1(O)CC[C@@H](F)CC1)c1nccc(C(F)(F)F)c1Cl` (single isomer, unassigned) [Compound 258] it is 3 µM; for `O=C(NC(c1cccc(F)c1Cl)[C@]1(O)CC[C@@H](F)CC1)c1cnnc2ccccc12` (single isomer, unassigned) [Compound 259, N-[(2-chloro-3-fluorophenyl)(cis-4-fluoro-1-hydroxycyclohexyl)methyl]cinnoline-4-carboxamide] it is 1 µM. In turn, `Cn1nc2c(c1C(=O)NC(c1cccc(F)c1Cl)[C@]1(O)CC[C@@H](F)CC1)CCCC2` (single isomer, unassigned) [Compound 260, N-[(2-chloro-3-fluorophenyl)(cis-4-fluoro-1-hydroxycyclohexyl)methyl]-2-methyl-4,5,6,7-tetrahydro-2H-indazol-3-carboxamide] showed an IC50 of 1.7 µM. With `Cc1nc2ccccn2c1C(=O)NC(c1cccc(F)c1Cl)[C@]1(O)CC[C@@H](F)CC1` (single isomer, unassigned) [Compound 261, N-[(2-chloro-3-fluorophenyl)(cis-4-fluoro-1-hydroxycyclohexyl)methyl]-2-methylimidazo[1,2-a]pyridine-3-carboxamide] the figure was 7.4 µM. The figure for `O=C(NC(c1cccc(F)c1Cl)[C@]1(O)CC[C@@H](F)CC1)c1c(Cl)nc2ccccn12` (single isomer, unassigned) [Compound 262, 2-chloro-N-[(2-chloro-3-fluorophenyl)(cis-4-fluoro-1-hydroxycyclohexyl)methyl]imidazo[1,2-a]pyridine-3-carboxamide] is 8.8 µM.

For the origin of these results see patent US20160130278A1 (TAISHO PHARMACEUTICAL CO., LTD, priority 2013, published 2016).
